Measured values taken from US20220411388A1, “SUBSTITUTED IMIDAZOLE CARBOXAMIDES AND THEIR USE IN THE TREATMENT OF MEDICAL DISORDERS” (Bial - R&D Investments, S.A., priority 2019, published 2022).
≈ marks a conversion by molar mass, not a printed value.

What was measured:
acid ceramidase (hACR) = target: T1, acid ceramidase (hACR) (Homo sapiens, UniProt Q13510); experiment: Acid ceramidase inhibition, biochemical fluorescent assay with cell lysates overexpressing acid ceramidase (substrate Rbm14-12); conditions: cell lysate, 1 hr preincubation at RT, pH 4.5, Rbm14-12 6.3 μM; read-out: IC50 hACR
T1 construct: expressed in transfected cells
T1 sequence (Q13510 22-395): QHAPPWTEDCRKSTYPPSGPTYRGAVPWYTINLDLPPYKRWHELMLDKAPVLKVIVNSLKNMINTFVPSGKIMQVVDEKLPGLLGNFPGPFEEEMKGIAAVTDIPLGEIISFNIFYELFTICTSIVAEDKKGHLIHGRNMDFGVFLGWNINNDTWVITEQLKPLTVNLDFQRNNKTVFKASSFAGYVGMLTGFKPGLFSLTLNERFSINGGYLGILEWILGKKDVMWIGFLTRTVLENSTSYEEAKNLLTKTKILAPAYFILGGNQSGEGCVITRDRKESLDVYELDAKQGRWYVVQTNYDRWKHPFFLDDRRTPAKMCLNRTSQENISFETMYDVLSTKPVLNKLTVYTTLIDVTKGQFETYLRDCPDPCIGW
Experimental: The ability of exemplary compounds to inhibit acid ceramidase was measured.
Cell lysates overexpressing acid ceramidase were used as the enzyme source for compound potency determination in a biochemical fluorescent assay. Briefly, compounds were preincubated with 10 μg protein of cell lysates in a dose-response manner for 1 hr at RT in the assay buffer containing 25 mM NaAC and 100 mM NaCl, pH 4.5. […] The samples were incubated with the stopping buffer at RT for 1 hr to allow the fluorescent product to be formed. […] Data were collected and used to determine the IC50 values of compounds by curve fitting to the four-parameter inhibition equation.

[1] = Compound solubility in water; format: physicochemical

Row | Structure (SMILES) | IC50 (acid ceramidase (hACR)) [nM] | solubility [1] [µg/mL]
1 | O=C(NCCc1ccccc1)n1cnc(-c2ccccc2)c1 [Example 2, N-Phenethyl-4-phenyl-1H-imidazole-1-carboxamide] | < 200 | 0.2 (≈ 0.686 µM)
2 | CC(C)(C)c1cn(C(=O)NCCc2ccccc2)cn1 [Example 3, 4-tert-Butyl-N-phenethyl-1H-imidazole-1-carboxamide] | < 200 | 5.2 (≈ 19.2 µM)
3 | O=C(NCCc1ccccc1)n1cnc(-c2ccccn2)c1 [Example 4, N-Phenethyl-4-(pyridin-2-yl)-1H-imidazole-1-carboxamide] | 200 to 1000 | 21.1 (≈ 72.2 µM)
4 | O=C(NCCc1ccccc1)n1cnc(-c2cccnc2)c1 [Example 5] | 200 to 1000 | 16.2 (≈ 55.4 µM)
5 | O=C(NCCc1ccccc1)n1cnc(-c2ccncc2)c1 [Example 6, N-Phenethyl-4-(pyridin-4-yl)-1H-imidazole-1-carboxamide] | > 1000 | 23.9 (≈ 81.8 µM)
6 | Cc1nc(-c2ccccc2)cn1C(=O)NCCc1ccccc1 [Example 7, 2-Methyl-N-phenethyl-4-phenyl-1H-imidazole-1-carboxamide] | < 200 | 1.1 (≈ 3.6 µM)
7 | COc1nc(-c2ccccc2)cn1C(=O)NCCc1ccccc1 [Example 8, 2-Methoxy-N-phenethyl-4-phenyl-1H-imidazole-1-carboxamide] | 200 to 1000 | 0.1 (≈ 0.311 µM)
8 | O=C(NCCCc1ccccc1)n1cnc(-c2ccccc2)c1 [Example 9] | < 200 | 1.3 (≈ 4.26 µM)
9 | COc1nc(C(C)(C)C)cn1C(=O)NCCc1ccccc1 [Example 11, 4-tert-Butyl-2-methoxy-N-phenethyl-1H-imidazole-1-carboxamide] | 200 to 1000 | 15.1 (≈ 50.1 µM)
10 | COc1nc(-c2ccccc2)cn1C(=O)NCCCc1ccccc1 [Example 12, 2-Methoxy-4-phenyl-N-(3-phenylpropyl)-1H-imidazole-1-carboxamide] | 200 to 1000 | 1 (≈ 2.98 µM)
11 | CC(C)(CNC(=O)n1cnc(-c2cccnc2)c1)c1ccccc1 [Example 13, N-(2-Methyl-2-phenylpropyl)-4-(pyridin-3-yl)-1H-imidazole-1-carboxamide] | < 200 | 1.9 (≈ 5.93 µM)
12 | O=C(NCCCc1ccccc1)n1cnc(-c2cccnc2)c1 [Example 14, N-(3-Phenylpropyl)-4-(pyridin-3-yl)-1H-imidazole-1-carboxamide] | < 200 | 14.3 (≈ 46.7 µM)
13 | CC(CNC(=O)n1cnc(-c2cccnc2)c1)Cc1ccccc1 (stereo not shown) [Example 15, N-(2-Methyl-3-phenylpropyl)-4-(pyridin-3-yl)-1H-imidazole-1-carboxamide] | < 200 | 16.1 (≈ 50.3 µM)
14 | CC(CCNC(=O)n1cnc(-c2cccnc2)c1)c1ccccc1 (stereo not shown) [Example 16, N-(3-Phenylbutyl)-4-(pyridin-3-yl)-1H-imidazole-1-carboxamide] | < 200 | 3.8 (≈ 11.9 µM)
15 | O=C(NCCOc1ccccc1)n1cnc(-c2cccnc2)c1 [Example 17, N-(2-Phenoxyethyl)-4-(pyridin-3-yl)-1H-imidazole-1-carboxamide] | < 200 | 2.6 (≈ 8.43 µM)
16 | O=C(NCCOc1ccccc1)n1cnc(-c2ccccc2)c1 [Example 18, N-(2-Phenoxyethyl)-4-phenyl-1H-imidazole-1-carboxamide] | < 200 | 0.06 (≈ 0.195 µM)
17 | CC(C)(C)c1cn(C(=O)NCCOc2ccccc2)cn1 [Example 19, 4-tert-Butyl-N-(2-phenoxyethyl)-1H-imidazole-1-carboxamide] | < 200 | 0.8 (≈ 2.78 µM)

Second part, the compound after the results:

Row | IC50 (acid ceramidase (hACR)) [nM] | solubility [1] [µg/mL] | Structure (SMILES)
18 | 200 to 1000 | 0.2 (≈ 0.734 µM) | CC(C)(C)c1cn(C(=O)NCCc2cccnc2)cn1 [Example 20, 4-tert-Butyl-N-(2-(pyridin-3-yl)ethyl)-1H-imidazole-1-carboxamide]
19 | 200 to 1000 | 21.5 (≈ 83.2 µM) | CC(C)CCNC(=O)n1cnc(-c2cccnc2)c1 [Example 21, N-iso-Pentyl-4-(pyridin-3-yl)-1H-imidazole-1-carboxamide]
20 | 200 to 1000 | 23 (≈ 89.7 µM) | O=C(NCCC1CC1)n1cnc(-c2cccnc2)c1 [Example 22, N-(2-Cyclopropylethyl)-4-(pyridin-3-yl)-1H-imidazole-1-carboxamide]
21 | 200 to 1000 | 23.7 (≈ 73.1 µM) | O=C(NCCC1(C(F)(F)F)CC1)n1cnc(-c2cccnc2)c1 [Example 23, 4-(Pyridin-3-yl)-N-(2-(1-(trifluoromethyl)cyclopropyl)ethyl)-1H-imidazole-1-carboxamide]
22 | > 1000 | 12.6 (≈ 45.9 µM) | CC(C)OCCNC(=O)n1cnc(-c2cccnc2)c1 [Example 24, N-(2-iso-Propoxyethyl)-4-(pyridin-3-yl)-1H-imidazole-1-carboxamide]
23 | < 200 | 0.8 (≈ 2.47 µM) | O=C(NCCC1(C(F)(F)F)CC1)n1cnc(-c2ccccc2)c1 [Example 25, 4-Phenyl-N-(2-(1-(trifluoromethyl)cyclopropyl)ethyl)-1H-imidazole-1-carboxamide]
24 | 200 to 1000 | 1.9 (≈ 7.44 µM) | O=C(NCCC1CC1)n1cnc(-c2ccccc2)c1 [Example 26, N-(2-Cyclopropylethyl)-4-phenyl-1H-imidazole-1-carboxamide]
25 | < 200 | 3.1 (≈ 12 µM) | CC(C)CCNC(=O)n1cnc(-c2ccccc2)c1 [Example 27, N-iso-Pentyl-4-phenyl-1H-imidazole-1-carboxamide]
26 | < 200 | 5 (≈ 15.8 µM) | N#Cc1ccc(-c2cn(C(=O)NCCc3ccccc3)cn2)cn1 [Example 28, 4-(6-Cyanopyridin-3-yl)-N-phenethyl-1H-imidazole-1-carboxamide]
27 | < 200 | 3 (≈ 9.79 µM) | Cc1ccc(-c2cn(C(=O)NCCc3ccccc3)cn2)cn1 [Example 29, 4-(6-Methylpyridin-3-yl)-N-phenethyl-1H-imidazole-1-carboxamide]
28 | < 200 | 3.4 (≈ 11 µM) | O=C(NCCc1ccccc1)n1cnc(-c2ccc(F)nc2)c1 [Example 30, 4-(6-Fluoropyridin-3-yl)-N-phenethyl-1N-imidazole-1-carboxamide]
29 | < 200 | 25.1 (≈ 77.9 µM) | COc1ccc(-c2cn(C(=O)NCCc3ccccc3)cn2)cn1 [Example 31, 4-(6-Methoxypyridin-3-yi)-N-phenethyl-1H-imidazole-1-carboxamide]
30 | 200 to 1000 | 27.6 (≈ 102 µM) | O=C(NCCCC1CC1)n1cnc(-c2cccnc2)c1 [Example 32, N-(3-Cyclopropylpropyl)-4-(pyridin-3-yl)-1H-imidazole-1-carboxamide]
31 | 200 to 1000 | 18.9 (≈ 69.4 µM) | CC(C)CCCNC(=O)n1cnc(-c2cccnc2)c1 [Example 33]
32 | < 200 | 25.6 (≈ 73.5 µM) | CN(C)Cc1ccc(-c2cn(C(=O)NCCc3ccccc3)cn2)cc1 [Example 34, 4-(4-((Dimethylamino)methyl)phenyl)-N-phenethyl-1H-imidazole-1-carboxamide]
33 | > 1000 | 19.1 (≈ 78.2 µM) | CC(C)CNC(=O)n1cnc(-c2cccnc2)c1 [Example 35, N-iso-Butyl-4-(pyridin-3-yl)-1H-imidazole-1-carboxamide]
34 | 200 to 1000 | 2.9 (≈ 10.1 µM) | COc1ccc(-c2cn(C(=O)NCCC(C)C)cn2)cn1 [Example 36, N-iso-Pentyl-4-(6-methoxypyridin-3-yl)-1H-imidazole-1-carboxamide]
35 | > 1000 | 7.3 (≈ 26.8 µM) | Cc1ccc(-c2cn(C(=O)NCCC(C)C)cn2)cn1 [Example 37, N-iso-Pentyl-4-(6-methylpyridin-3-yl)-1H-imidazole-1-carboxamide]
36 | 200 to 1000 | 35.3 (≈ 99.6 µM) | CC(C)CCNC(=O)n1cnc(-c2ccccc2C2CCN(C)CC2)c1 [Example 38, N-iso-Pentyl-4-(2-(1-methylpiperidin-4-yl)phenyl)-1H-imidazole-1-carboxamide]
37 | < 200 | 2.7 (≈ 9.43 µM) | CC(C)CCCCNC(=O)n1cnc(-c2cccnc2)c1 [Example 39, N-(5-Methylhexyl)-4-(pyridin-3-yl)-1H-imidazole-1-carboxamide]
38 | > 1000 | 22.1 (≈ 85.6 µM) | CC(C)CCNC(=O)n1cnc(-c2ccncc2)c1 [Example 41, N-iso-Pentyl-4-(pyridin-4-yl)-1H-imidazole-1-carboxamide]
39 | 200 to 1000 | 13.6 (≈ 48.9 µM) | O=C(NCc1ccccc1)n1cnc(-c2cccnc2)c1 [Example 42]
40 | < 200 | 0.8 (≈ 2.39 µM) | CC(C)c1ccc(-c2cn(C(=O)NCCc3ccccc3)cn2)cn1 [Example 43, 4-(6-iso-Propylpyridin-3-yl)-N-phenethyl-1H-imidazole-1-carboxamide]
41 | – | 29 (≈ 66.4 µM) | CN1CCN(c2ncccc2-c2cn(C(=O)NCCCC3(C(F)(F)F)CC3)cn2)CC1 [Example 176, 4-(2-(4-Methylpiperazin-1-yl)pyridin-3-yl)-N-(3-(1-(trifluoromethyl)cyclopropyl)propyl)-1H-imidazole-1-carboxamide]
42 | 200 to 1000 | – | COc1nc(Cl)cn1C(=O)NCC#CC(C)C [Example 186, 4-Chloro-2-methoxy-N-(4-methylpent-2-yn-1-yl)-1H-imidazole-1-carboxamide]
